The target in this test is Factor D (Homo sapiens (Human), UniProt P00746). Nature of the test: biochemical. It is filed as biochemical. Particulars: read-out: IC50.

Molecules are shown by their SMILES.

This note sets out measurements from patent US9085555B2, “Complement pathway modulators and uses thereof” (priority 2011, dated 2015).

Factor D, sequence (P00746 26-253): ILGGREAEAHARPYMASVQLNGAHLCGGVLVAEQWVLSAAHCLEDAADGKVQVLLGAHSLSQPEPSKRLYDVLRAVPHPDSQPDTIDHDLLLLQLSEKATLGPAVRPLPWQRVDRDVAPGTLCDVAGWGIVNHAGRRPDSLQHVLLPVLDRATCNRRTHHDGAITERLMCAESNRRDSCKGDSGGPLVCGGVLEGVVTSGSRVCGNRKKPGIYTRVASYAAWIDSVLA

By IC50 is commonly meant the midpoint of a concentration-inhibition curve. Regarding `CC(=O)c1cn(CC(=O)N2[C@@H]3C[C@@H]3C[C@H]2C(=O)NCc2cccc(Cl)c2F)c2ccncc12` [Example 524, (1R,3S,5R)-2-[2-(3-Acetyl-pyrrolo[3,2-c]pyridin-1-yl)-acetyl]-2-aza-bicyclo[3.1.0]hexane-3-carboxylic acid 3-chloro-2-fluoro-benzylamide], the concentration for half-maximal inhibition (IC50) came out at 64 nM.

For the compound `CC(=O)c1cn(CC(=O)N2[C@@H]3C[C@@H]3C[C@H]2C(=O)NCc2cc(-c3nnn[nH]3)cc(Cl)c2F)c2ccccc12` [Example 525, (1R,3S,5R)-2-[2-(3-Acetyl-indol-1-yl)-acetyl]-2-aza-bicyclo[3.1.0]hexane-3-carboxylic acid 3-chloro-2-fluoro-5-(1H-tetrazol-5-yl)-benzylamide], the IC50 was 36 nM. The figure for `COC(=O)c1ccc2c(C(C)=O)cn(CC(=O)N3[C@@H]4C[C@@H]4C[C@H]3C(=O)NCc3cccc(Cl)c3F)c2c1` [Example 526, 3-Acetyl-1-{2-[(1R,3S,5R)-3-(3-chloro-2-fluoro-benzylcarbamoyl)-2-aza-bicyclo[3.1.0]hex-2-yl]-2-oxo-ethyl}-1H-indole-6-carboxylic acid methyl ester] is 54 nM; for `CC(=O)c1cn(CC(=O)N2[C@@H]3C[C@@H]3C[C@H]2C(=O)NCc2cc(C#N)cc(Cl)c2F)c2ccccc12` [Example 527, (1R,3S,5R)-2-[2-(3-Acetyl-indol-1-yl)-acetyl]-2-aza-bicyclo[3.1.0]hexane-3-carboxylic acid 3-chloro-5-cyano-2-fluoro-benzylamide] it is 483 nM; for `NC(=O)c1cn(CC(=O)N2C[C@H](F)C[C@H]2C(=O)NCc2cccc(Cl)c2F)c2cc(OC(F)F)ccc12` [Example 528, 1-{2-[(2S,4R)-2-(3-Chloro-2-fluoro-benzylcarbamoyl)-4-fluoro-pyrrolidin-1-yl]-2-oxo-ethyl}-6-difluoromethoxy-1H-indole-3-carboxylic acid amide] it is 75 nM. `CC(=O)c1cn(CC(=O)N2C[C@](C)(F)C[C@H]2C(=O)NCc2cccc(Cl)c2F)c2ncccc12` [Example 530, (2S,4R)-1-[2-(3-Acetyl-pyrrolo[2,3-b]pyridin-1-yl)-acetyl]-4-fluoro-4-methyl-pyrrolidine-2-carboxylic acid 3-chloro-2-fluoro-benzylamide]: the concentration for half-maximal inhibition (IC50) worked out at 72 nM. The figure for `CC(=O)c1cn(CC(=O)N2C[C@H](F)C[C@H]2C(=O)NCc2cccc(Cl)c2F)c2cc(Cl)ccc12` [Example 531, (2S,4R)-1-[2-(3-Acetyl-6-chloro-indol-1-yl)-acetyl]-4-fluoro-pyrrolidine-2-carboxylic acid 3-chloro-2-fluoro-benzylamide] is 11 nM; for `CC(=O)c1cn(CC(=O)N2[C@@H]3C[C@@H]3C[C@H]2C(=O)NCc2cccc(Cl)c2F)c2nc(C#N)ccc12` [Example 532, (1R,3S,5R)-2-[2-(3-Acetyl-6-cyano-pyrrolo[2,3-b]pyridin-1-yl)-acetyl]-2-aza-bicyclo[3.1.0] hexane-3-carboxylic acid 3-chloro-2-fluoro-benzylamide] it is 223 nM; for `COC[C@@H](NC(=O)[C@@H]1C[C@H]2C[C@H]2N1C(=O)Cn1cc(C(C)=O)c2cccnc21)c1cccc(Cl)c1F` [Example 533, (1R,3S,5R)-2-[2-(3-Acetyl-pyrrolo[2,3-b]pyridin-1-yl)-acetyl]-2-aza-bicyclo[3.1.0] hexane-3-carboxylic acid [(S)-1-(3-chloro-2-fluoro-phenyl)-2-methoxy-ethyl]-amide] it is 34 nM. The figure for `COC[C@@H](NC(=O)[C@@H]1C[C@H]2C[C@H]2N1C(=O)Cn1cc(C(C)=O)c2ccncc21)c1cccc(Cl)c1F` [Example 535, (1R,3S,5R)-2-[2-(3-Acetyl-pyrrolo[2,3-c]pyridin-1-yl)-acetyl]-2-aza-bicyclo[3.1.0] hexane-3-carboxylic acid [(S)-1-(3-chloro-2-fluoro-phenyl)-2-methoxy-ethyl]-amide] is 62 nM. On to `CC(=O)c1cn(CC(=O)N2[C@@H]3C[C@@H]3C[C@H]2C(=O)NCc2cccc(Cl)c2F)c2cc(OCc3ccccc3)ccc12` [Example 536, (1R,3S,5R)-2-[2-(3-Acetyl-6-benzyloxy-indol-1-yl)-acetyl]-2-aza-bicyclo[3.1.0]hexane-3-carboxylic acid 3-chloro-2-fluoro-benzylamide], for which the IC50 was 121 nM. Then `CC(=O)c1cn(CC(=O)N2C[C@H]3C[C@H]3[C@H]2C(=O)NCc2cccc(Cl)c2F)c2ccncc12` [Example 537, (1R,2S,5S)-3-[2-(3-Acetyl-pyrrolo[3,2-c]pyridin-1-yl)-acetyl]-3-aza-bicyclo[3.1.0] hexane-2-carboxylic acid 3-chloro-2-fluoro-benzylamide], with 609 nM; and `CC(=O)c1cn(CC(=O)N2C[C@H]3C[C@H]3[C@H]2C(=O)NCc2cccc(Cl)c2F)c2ncccc12` [Example 538, (1R,2S,5S)-3-[2-(3-Acetyl-pyrrolo[2,3-b]pyridin-1-yl)-acetyl]-3-aza-bicyclo[3.1.0] hexane-2-carboxylic acid 3-chloro-2-fluoro-benzylamide], with 911 nM; and `CC(=O)c1cn(CC(=O)N2C[C@H](F)C[C@H]2C(=O)NCc2cccc(Cl)c2F)c2ccc(OC(F)(F)F)cc12` [Example 539, (2S,4R)-1-[2-(3-Acetyl-5-trifluoromethoxy-indol-1-yl)-acetyl]-4-fluoro-pyrrolidine-2-carboxylic acid 3-chloro-2-fluoro-benzylamide], with 31 nM.

Regarding `COC(=O)c1ccc2c(c1)c(C(C)=O)cn2CC(=O)N1[C@@H]2C[C@@H]2C[C@H]1C(=O)NCc1cccc(Cl)c1F` [Example 540, 3-Acetyl-1-{2-[(1R,3S,5R)-3-(3-chloro-2-fluoro-benzylcarbamoyl)-2-aza-bicyclo[3.1.0]hex-2-yl]-2-oxo-ethyl}-1H-indole-5-carboxylic acid methyl ester], the IC50 was found to be 236 nM. The figure for `COC(=O)c1cccc2c(C(C)=O)cn(CC(=O)N3[C@@H]4C[C@@H]4C[C@H]3C(=O)NCc3cccc(Cl)c3F)c12` [Example 541, 3-Acetyl-1-{2-[(1R,3S,5R)-3-(3-chloro-2-fluorobenzylcarbamoyl)-2-aza-bicyclo[3.1.0]hex-2-yl]-2-oxo-ethyl}-1H-indole-7-carboxylic acid methyl ester] is 91 nM. As to `COC(=O)c1ccc2c(C(C)=O)cn(CC(=O)N3C[C@H](F)C[C@H]3C(=O)NCc3cccc(Cl)c3F)c2c1` [Example 542, 3-Acetyl-1-{2-[(2S,4R)-2-(3-chloro-2-fluoro-benzylcarbamoyl)-4-fluoro-pyrrolidin-1-yl]-2-oxo-ethyl}-1H-indole-6-carboxylic acid methyl ester], the IC50 was 19 nM. The figure for `C[C@@]1(F)C[C@@H](C(=O)NCc2cccc(Cl)c2F)N(C(=O)Cn2cc(C(=O)CO)c3ccccc32)C1` [Example 543, (2S,4R)-4-Fluoro-1-{2-[3-(2-hydroxy-acetyl)-indol-1-yl]-acetyl}-4-methyl-pyrrolidine-2-carboxylic acid 3-chloro-2-fluoro-benzylamide] is 245 nM; for `CC(=O)c1cn(CC(=O)N2C[C@@H]3C[C@@H]3[C@H]2C(=O)NCc2cccc(Cl)c2F)c2cnccc12` [Example 544, (1S,2S,5R)-3-[2-(3-Acetyl-pyrrolo[2,3-c]pyridin-1-yl)-acetyl]-3-aza-bicyclo[3.1.0] hexane-2-carboxylic acid 3-chloro-2-fluoro-benzylamide] it is 1110 nM; for `COC(=O)Cc1ccc2c(C(C)=O)cn(CC(=O)N3[C@@H]4C[C@@H]4C[C@H]3C(=O)NCc3cccc(Cl)c3F)c2c1` [Example 545, (3-Acetyl-1-{2-[(1R,3S,5R)-3-(3-chloro-2-fluoro-benzylcarbamoyl)-2-aza-bicyclo[3.1.0]hex-2-yl]-2-oxo-ethyl}-1H-indol-6-yl)-acetic acid methyl ester] it is 113 nM. The figure for `CC(=O)c1cn(CC(=O)N2C[C@H](F)C[C@H]2C(=O)NCc2cccc(Cl)c2F)c2ncccc12` [Example 547, (2S,4R)-1-[2-(3-Acetyl-pyrrolo[2,3-b]pyridin-1-yl)-acetyl]-4-fluoro-pyrrolidine-2-carboxylic acid 3-chloro-2-fluoro-benzylamide] is 38 nM; for `COC(=O)c1ccc2c(C(C)=O)cn(CC(=O)N3C[C@](C)(F)C[C@H]3C(=O)NCc3cccc(Cl)c3F)c2c1` [Example 548, 3-Acetyl-1-{2-[(2S,4R)-2-(3-chloro-2-fluoro-benzylcarbamoyl)-4-fluoro-4-methyl-pyrrolidin-1-yl]-2-oxo-ethyl}-1H-indole-6-carboxylic acid methyl ester] it is 363 nM. On to `COC(=O)Cc1ccc2c(C(C)=O)cn(CC(=O)N3C[C@H](F)C[C@H]3C(=O)NCc3cccc(Cl)c3F)c2c1` [Example 549, (3-Acetyl-1-{2-[(2S,4R)-2-(3-chloro-2-fluoro-benzylcarbamoyl)-4-fluoro-pyrrolidin-1-yl]-2-oxo-ethyl}-1H-indol-6-yl)-acetic acid methyl ester], for which the IC50 turned out to be 69 nM. Then `CC(=O)c1cn(CC(=O)N2[C@@H]3C[C@@H]3C[C@H]2C(=O)NCc2cccc(Cl)c2F)c2cnccc12` [Example 550, (1R,3S,5R)-2-[2-(3-Acetyl-pyrrolo[2,3-c]pyridin-1-yl)-acetyl]-2-aza-bicyclo[3.1.0]hexane-3-carboxylic acid 3-chloro-2-fluorobenzylamide], with 33 nM; and `O=C(CO)c1cn(CC(=O)N2C[C@H](F)C[C@H]2C(=O)N[C@H](CF)c2cccc(Br)c2)c2ccccc12` [Example 551, (2S,4R)-4-Fluoro-1-{2-[3-(2-hydroxy-acetyl)-indol-1-yl]-acetyl}-pyrrolidine-2-carboxylic acid [(S)-1-(3-bromo-phenyl)-2-fluoro-ethyl]-amide], with 899 nM.

As to `CC(=O)c1cn(CC(=O)N2C[C@H](F)C[C@H]2C(=O)NCc2cccc(Cl)c2F)c2cnccc12` [Example 552, (2S,4R)-1-[2-(3-Acetyl-pyrrolo[2,3-c]pyridin-1-yl)-acetyl]-4-fluoro-pyrrolidine-2-carboxylic acid 3-chloro-2-fluoro-benzylamide], the IC50 was found to be 40 nM.
